Columns and labels:
[1] = tested on: HCV genotype 1a L31V variant with leucine 31 changed to valine in the NS5A protein; assay: microbe, parasite or virus in culture; type: cell-based; conditions: genotype 1a L31V replicon; test compound titrated with compound N47 fixed at 200 nM versus singly
[2] = tested on: HCV genotype 1a Y93H variant with tyrosine 93 changed to histidine in the NS5A protein; assay: microbe, parasite or virus in culture; type: cell-based; conditions: genotype 1a Y93H replicon; test compound titrated with compound N47 fixed at 200 nM versus singly
Protocol: Combinations can be examined for synergistic activity using a variety of putative NS5A-targeting compounds and a variety of test compounds. […] The test compound can be chosen from compounds exemplified below, which were prepared by methods known in the art, or from others disclosed in the literature.
Similarly, BMS-790052 can be tested singly and in combination with a fixed amount of compound N47 in the HCV replicon cell based assay consisting of the genotype 1a Y93H variant with tyrosine 93 changed to histidine in the NS5A protein.

SMILES | Fold-Synergistic G-1a (L31V) [1] | Fold-Synergistic G-1a (Y93H) [2]
CC(=O)N1CCC[C@H]1C(=O)Nc1ccc(-c2nc(-c3ccc(NC(=O)[C@@H]4C=CCN4C(=O)Cc4ccccc4)cc3)cs2)cc1 | <10 fold | <10 fold
O=C(Cc1ccccc1)N1CCC[C@H]1c1nc2cc(C#Cc3ccc4nc([C@@H]5CCCN5C(=O)Cc5ccccc5)[nH]c4c3)ccc2[nH]1 | <10 fold | <10 fold
O=C(Cc1ccccc1)N1CCC[C@H]1c1nc2cc(CCc3ccc4nc([C@@H]5CCCN5C(=O)Cc5ccccc5)[nH]c4c3)ccc2[nH]1 | <10 fold | <10 fold
COC(=O)N[C@H](C(=O)N1CCC[C@H]1c1nc2cc(C#Cc3ccc(-c4[nH]cnc4[C@@H]4CCCN4C(=O)[C@@H](NC(=O)OC)C(C)C)cc3)ccc2[nH]1)C(C)C | <10 fold | >10 fold
COC(=O)N[C@H](C(=O)N1C[C@@H](C)C[C@H]1c1ncc(-c2ccc(-c3ccc(-c4cnc([C@@H]5C[C@H](C)CN5C(=O)[C@@H](NC(=O)OC)C(C)C)[nH]4)cc3)cc2)[nH]1)C(C)C | >10 fold | >100 fold
COC(=O)N[C@H](C(=O)N1CCC[C@H]1c1nc(-c2ccc(C#Cc3ccc4[nH]c([C@@H]5CCCN5C(=O)[C@@H](NC(=O)OC)C(C)C)nc4c3)cc2)c[nH]1)C(C)C | >100 fold | >100 fold
COC(=O)N[C@H](C(=O)N1CCC[C@H]1c1nc2cc(-c3ccc4c(ccc5[nH]c([C@@H]6CCCN6C(=O)[C@@H](NC(=O)OC)C(C)C)nc54)c3)ccc2[nH]1)C(C)C | >10 fold | >100 fold
COC(=O)N[C@H](C(=O)N1CCC[C@H]1c1nc2c([nH]1)CCc1cc(C#Cc3ccc4[nH]c([C@@H]5CCCN5C(=O)[C@@H](NC(=O)OC)C(C)C)nc4c3)ccc1-2)C(C)C | >100 fold | >100 fold
COC(=O)N[C@H](C(=O)N1CCC[C@H]1c1nc(-c2ccc(-c3ccc(-c4ccc5nc([C@@H]6CCCN6C(=O)[C@@H](NC(=O)OC)C(C)C)[nH]c5c4)cc3)cc2)c[nH]1)C(C)C | >10 fold | >10 fold
CC[C@H]1CC[C@@H](c2ncc(-c3ccc(-c4ccc(-c5cnc([C@@H]6CC[C@H](CC)N6C(=O)[C@@H](NC(=O)OC)C(C)C)[nH]5)cc4)cc3)[nH]2)N1C(=O)[C@@H](NC(=O)OC)C(C)C | >100 fold | >100 fold
COC(=O)N[C@H](C(=O)N1[C@@H]2C[C@@H]2C[C@H]1c1nc2ccc(C#CC#Cc3ccc4nc([C@@H]5C[C@H]6C[C@H]6N5C(=O)[C@@H](NC(=O)OC)C(C)C)[nH]c4c3)cc2[nH]1)C(C)C | >10 fold | >100 fold
COC(=O)N[C@H](C(=O)N1CCC[C@H]1c1nc2cc(-c3ccc4ccc(-c5ccc6nc([C@@H]7CCCN7C(=O)[C@@H](NC(=O)OC)C(C)C)[nH]c6c5)cc4c3)ccc2[nH]1)C(C)C | >10 fold | >10 fold
COC(=O)N[C@H](C(=O)N1CCC[C@H]1c1nc2cc(-c3ccc4cc(-c5ccc6[nH]c([C@@H]7CCCN7C(=O)[C@@H](NC(=O)OC)C(C)C)nc6c5)ccc4c3)ccc2[nH]1)C(C)C | >10 fold | >10 fold
COC(=O)N[C@H](C(=O)N1CCCC1c1nc2cc(-c3ccc4cc(-c5ccc(-c6cnc([C@@H]7CCCN7C(=O)[C@@H](NC(=O)OC)C(C)C)[nH]6)cc5)ccc4c3)ccc2[nH]1)C(C)C (some centres unmarked) | >10 fold | >10 fold
COC(=O)N[C@H](C(=O)N1[C@H](c2ncc(-c3ccc(-c4ccc(-c5cnc([C@@H]6CCN(C)N6C(=O)[C@@H](NC(=O)OC)C(C)C)[nH]5)cc4)cc3)[nH]2)CCN1C)C(C)C | >100 fold | >100 fold
COC(=O)N[C@@H](C(=O)N1CCC[C@H]1c1nc2cc(-c3ccc(-c4ccc5c(ccc6[nH]c([C@@H]7CCCN7C(=O)[C@H](NC(=O)OC)c7ccccc7)nc65)c4)cc3)ccc2[nH]1)c1ccccc1 | <10 fold | <10 fold
COC(=O)N[C@H](C(=O)N1CCC[C@H]1c1ncc(C#Cc2ccc(-c3ccc4nc([C@@H]5CCCN5C(=O)[C@@H](NC(=O)OC)C(C)C)[nH]c4c3)cc2)[nH]1)C(C)C | >100 fold | >100 fold

SMILES | Fold-Synergistic G-1a (L31V) [1] | Fold-Synergistic G-1a (Y93H) [2]
COC(=O)N[C@@H](C(=O)N1CCC[C@H]1c1ncc(C#CC#Cc2cnc([C@@H]3CCCN3C(=O)[C@H](NC(=O)OC)c3ccccc3)[nH]2)[nH]1)c1ccccc1 | <10 fold | <10 fold
COC(=O)N[C@H](C(=O)N1CCC[C@H]1c1ncc(-c2ccc(C#Cc3ccc4c(ccc5[nH]c([C@@H]6CCCN6C(=O)[C@@H](NC(=O)OC)C(C)C)nc54)c3)cc2)[nH]1)C(C)C | <10 fold | >100 fold
COC(=O)N[C@H](C(=O)N1[C@@H]2C[C@@H]2C[C@H]1c1ncc(-c2ccc(C#Cc3ccc(-c4cnc([C@@H]5C[C@H]6C[C@H]6N5C(=O)[C@@H](NC(=O)OC)C(C)C)[nH]4)cc3)cc2)[nH]1)C(C)C | <10 fold | >10 fold
COC(=O)N[C@H](C(=O)N1[C@@H]2C[C@@H]2C[C@H]1c1nc2ccc(-c3ccc4cc(-c5ccc6nc([C@@H]7C[C@H]8C[C@H]8N7C(=O)[C@@H](NC(=O)OC)C(C)C)[nH]c6c5)ccc4c3)cc2[nH]1)C(C)C | >10 fold | >10 fold
COC(=O)N[C@H](C(=O)N1C[C@@H]2C[C@@H]2[C@H]1c1ncc(-c2ccc(-c3ccc(-c4cnc([C@@H]5[C@H]6C[C@H]6CN5C(=O)[C@@H](NC(=O)OC)C(C)C)[nH]4)cc3)cc2)[nH]1)C(C)C | >100 fold | >100 fold
COC(=O)N[C@H](C(=O)N1CC[C@H](C)[C@H]1c1ncc(-c2ccc(-c3ccc(-c4cnc([C@@H]5[C@@H](C)CCN5C(=O)[C@@H](NC(=O)OC)C(C)C)[nH]4)cc3)cc2)[nH]1)C(C)C | >100 fold | >100 fold
COC(=O)N[C@H](C(=O)N1CCC[C@H]1c1nc2cc(-c3ccc4cc(-c5cnc6[nH]c([C@@H]7CCCN7C(=O)[C@@H](NC(=O)OC)C(C)C)nc6c5)ccc4c3)cnc2[nH]1)C(C)C | >10 fold | >10 fold
COC(=O)N[C@H](C(=O)N1CCC[C@H]1c1ncc(-c2ccc(-c3ccc4cc(-c5cnc([C@@H]6CCCN6C(=O)[C@@H](NC(=O)OC)C(C)C)[nH]5)ccc4c3)cc2)[nH]1)C(C)C | <10 fold | >10 fold
COC(=O)N[C@H](C(=O)N1[C@@H]2C[C@@H]2C[C@H]1c1nc(Cl)c(-c2ccc(-c3ccc(-c4[nH]c([C@@H]5C[C@H]6C[C@H]6N5C(=O)[C@@H](NC(=O)OC)C(C)C)nc4Cl)cc3)cc2)[nH]1)C(C)C | >10 fold | <10 fold
COC(=O)N[C@H](C(=O)N1CCC[C@H]1c1ncc(-c2ccc3oc(-c4ccc5nc([C@@H]6CCCN6C(=O)[C@@H](NC(=O)OC)C(C)C)[nH]c5c4)nc3c2)[nH]1)C(C)C | >100 fold | >100 fold
COC(=O)N[C@H](C(=O)N1[C@@H]2C[C@@H]2C[C@H]1c1nc2cc(CCc3ccc4c(ccc5[nH]c([C@@H]6C[C@H]7C[C@H]7N6C(=O)[C@@H](NC(=O)OC)C6CCOCC6)nc54)c3)ccc2[nH]1)C(C)C | >10 fold | >100 fold
COC(=O)N[C@H](C(=O)N1C2CC2C[C@H]1c1nc2ccc3cc(C#Cc4ccc5c(ccc6nc([C@@H]7C[C@H]8C[C@H]8N7C(=O)[C@@H](NC(=O)OC)C(C)C)[nH]c65)c4)ccc3c2[nH]1)C(C)C (some centres unmarked) | <10 fold | >100 fold
COC(=O)N[C@H](C(=O)N1CCC[C@H]1c1ncc(C#Cc2ccc3cc(C#Cc4cnc([C@@H]5CCCN5C(=O)[C@@H](NC(=O)OC)C(C)C)[nH]4)ccc3c2)[nH]1)C(C)C | >10 fold | <10 fold
COC(=O)N[C@H](C(=O)N1CCC[C@H]1c1nc(-c2ccc(C#Cc3ccc(-c4ccc(-c5c[nH]c([C@@H]6CCCN6C(=O)[C@@H](NC(=O)OC)C(C)C)n5)cc4)cc3)cc2)c[nH]1)C(C)C | <10 fold | <10 fold
COC(=O)N[C@H](C(=O)N1[C@@H]2C[C@@H]2C[C@H]1c1ncc(-c2ccc(C#Cc3ccc4c(ccc5[nH]c([C@@H]6C[C@H]7C[C@H]7N6C(=O)[C@@H](NC(=O)OC)C(C)C)nc54)c3)cc2)[nH]1)C(C)C | <10 fold | >10 fold
COC(=O)N[C@H](C(=O)N1[C@@H]2C[C@@H]2C[C@H]1c1nc2ccc3cc(C#CC#Cc4ccc5c(ccc6nc([C@@H]7C[C@H]8C[C@H]8N7C(=O)[C@@H](NC(=O)OC)C(C)C)[nH]c65)c4)ccc3c2[nH]1)C(C)C | >10 fold | >10 fold
COC(=O)N[C@H](C(=O)N1CCC[C@H]1c1ncc(-c2ccc(-c3ccc4cc(-c5cnc([C@@H]6CCCN6C(=O)[C@@H](NC(=O)OC)C6CCOCC6)[nH]5)ccc4c3)cc2)[nH]1)C1CCOCC1 | <10 fold | >10 fold

From patent US20160158200A1, “Combinations of Hepatitis C Virus Inhibitors” (priority 2013, published 2016)
